In patent US20170198011A1, “COMPOSITION FOR TREATING SEPSIS OR SEPTIC SHOCK COMPRISING THE PEPTIDE ORIGINATED FROM THE SMAD6” (Medpacto, Inc., priority 2011, published 2017):
Where no end group is shown, it is not given here. The star is where a group is joined. Palmitoyl = CCCCCCCCCCCCCCCC(=O)*

Tests used:
[1] = test system: GRK2; assay: LPS-induced GRK2 expression in human neutrophils (immunoblot); type: cell-based; conditions: 100 nM for 2 hrs, then LPS 2 hrs
Protocol: To examine how Smaducin-6 interrupts with the LPS-induced downregulation of CXCR2, the levels of G-protein-coupled receptor kinase 2 (GRK2) in human neutrophils and RAW264.7 macrophages were measured. GRK2 is upregualted by LPS, which is known to suppress the expression of CXCR2.

[2] = test system: BALB/c mice with CLP-induced sepsis; assay: Survival of mice with CLP-induced sepsis; type: in vivo
Protocol: For use in assay for therapeutic effects of Smaducin-6 on sepsis, BALB/c mice were subjected to CLP (cecal ligation puncture) to prepare suitable animal models of clinical sepsis. Two hours after CLP operation on the mice, Smaducin-6 was subcutaneously injected at a dose of 8 mg/kg, 12 mg/kg, or 16 mg/kg to the mice, and then three more times at regular intervals of 12 hrs. […] In this context, Smaducin-6 was initially injected at a dose of 16 mg/kg 2, 4, or 10 hrs after CLP operation, and then three more times at regular intervals of 12 hrs. Further, cells from various tissues of CLP mice were stained with hematoxylin-eosin to observe nucleus and cell morphology.

[3] = test system: TUNEL-positive cells in the spleen; assay: TUNEL assay of spleen of mice with CLP-induced sepsis; type: in vivo; conditions: injected 2 and 14 hrs after CLP, spleen at 24 hrs
Protocol: An examination was made to see whether Smaducin-6 suppresses apoptosis in mice with CLP-induced sepsis. The scrambled peptides or the Smaducin-6 peptide was injected into mice suffering from CLP-induced sepsis from which the spleen was then excised. Smaducin-6 was assayed for anti-apototic activity using the TUNEL method. The expression level of caspase-3, involved in apoptosis, was also determined using an immunohistochemical assay.

[4] = test system: IRAK1-, RIP1- or IKKε-mediated signaling complexes; assay: Co-immunoprecipitation of LPS-induced TLR4 downstream signaling complexes in primary peritoneal macrophages; type: cell-based, mice
Protocol: A co-immunoprecipitation assay was carried out as follows. For use as antibodies in co-immunoprecipitation, mouse anti-HA (F-7), mouse anti-c-Myc (9E10), rabbit anti-IκBα (C-21), mouse anti-IRAK1 (F-4), and mouse anti-TRAF6 (D-10) were purchased from Santa Cruz Biotechnology (USA), the antibodies rabbit anti-Pellino-1 and rabbit anti-IRAK4 from Imgenex, the antibodies rabbit anti-Smad6, rabbit anti-MyD88 (D80F5), rabbit anti-IKKα, rabbit anti-phospho-IKKα/β, rabbit anti-RIP1 (D94C12), rabbit anti-IKKi (anti-IKKE; D61F9), rabbit anti-TBK1 (D1B4), rabbit anti-GRK2 from Cell Signaling, and the antibody anti-β-actin from Sigma. Cells were lysed in a lysis buffer (PBS containing 0.5% Triton X-100, 20 mM HEPES (pH 7.4), 150 mM NaCl, 12.5 mM β-glycerol phosphate, 1.5 mM MgCl2, 10 mM NaF, 2 mM DTT, 1 mM Na3O4V, 2 mM EGTA, 1 mM PMSF and protease inhibitor mixture), and harvested by centrifuging 13,000 rpm for 10 min. For immunoprecipitation, the cell lysate were incubated at 4° C. for 12 hrs with protein-A agarose beads and the above-mentioned antibodies. Afterwards, the beads were washed three times with a lysis buffer, and treated with a 2× sample buffer to separate the co-immunoprecipitates therefrom. The co-immunoprecipitates were boiled, followed by SDS-PAGE.
To examine whether Smaducin-6 interrupts the formation of the downstream signaling complex of TLR4, the cells were pre-treated with Smaducin-6 in the same manner as in Example 1, and analyzed for the LPS-induced formation of the signaling complex using a co-immunoprecipitation method. For control, the same experiment was conducted with scrambled peptides.

[5] = test system: bacteria in peritoneal fluid; assay: Bacterial count in peritoneal fluid of CLP mice; type: in vivo; conditions: subcutaneous injection, versus scrambled peptides
From the text: FIG. 7A is a graph showing cell counts in the peritoneal fluid taken from sepsis mice treated with scrambled peptides or Smaducin-6,
In mice with CLP-induced sepsis, the bacterial clearance of Smaducin-6 was examined. Smaducin-6 or the scrambled peptides were subcutaneously injected into CLP mice from which peritoneal fluid was then extracted from the mice, and bacteria in the fluid was counted. […] An examination was made to see whether this bacterial clearance of Smaducin-6 was attributed to the intraperitoneal migration of neutrophils. To this end, 2 and 14 hrs after induction of septic shock by injecting 60 mg/kg of LPS, Smaducin-6 or the scrambled peptides were injected into septic shock mice, and 24 hrs after the induction of septic shock, neutrophils were isolated from the peritoneal cavity using Histopaque-1077 (Sigma). Mouse neutrophils were counted using Trypan Blue (Sigma).

[6] = test system: IL6 inflammatory gene; assay: LPS-induced IL-6 expression in RAW264.7 cells by quantitative real-time RT-PCR; type: cell-based; conditions: RAW264.7 mouse macrophages, pre-treatment, then LPS
Protocol: FIG. 4A is a graph showing IL-6 levels in RAW264.7 cells as measured by quantitative real-time RT-PCR after treatment with scrambled peptides (Pal-Scram; 100 nM) or Smaducin-6 and then with LPS,

[7] = test system: TRAIL; assay: TRAIL expression in splenocytes of CLP mice (flow cytometry, immunohistochemistry); type: in vivo; conditions: sepsis mice, flow cytometry and immunohistochemistry
From the text: FIG. 8E is a graph showing expression levels of TRAIL in splenocytes of mice subcutaneously injected with Smaducin-6 or scrambled peptides at 2 and 14 hrs after sepsis induction by CLP, as measured by FACS, the splenocytes being taken 24 hrs after sepsis induction, and
Also, the effect of Smaducin-6 on the expression of TRAIL in mice with CLP-induced sepsis was examined. Splenocytes from the mice were subjected to flow cytometry and immunohistochemistry for TRAIL in the same manner as in Examples 8B and 8D. In this context, rabbit antibody TRAIL (C92B9, cell signaling), and FITC-conjugated goat antibody to […] (NOVUS) were used as a primary and a secondary antibody, respectively.

Substance: Smaducin-6: palmitic acid conjugated to N-terminus of the 20-amino-acid peptide of Smad6 position 422 to 441, GGRALVVRKVPPGYSIKVFD (SEQ ID NO: 1) (Palmitoyl-GGRALVVRKVPPGYSIKVFD)
- LPS-induced GRK2 expression [1]: downregualed
- survival rate of CLP mice ([2]; 12 mg/kg subcutaneous, first injection 2 hrs after CLP, three more times every 12 hrs (FIG. 5A)): 70%
- survival rate of CLP mice ([2]; 16 mg/kg subcutaneous, first injection 2 hrs after CLP, three more times every 12 hrs (FIG. 5A)): 90%
- survival rate of CLP mice ([2]; 16 mg/kg, initial injection 2 hrs after CLP (FIG. 5B)): 90%
- survival rate of CLP mice ([2]; 16 mg/kg, initial injection 4 hrs after CLP (FIG. 5B)): 60%
- level of TUNEL-positive cells in the spleen [3]: significantly reduced
- LPS-induced formation of the IKKε-mediated signaling complex [4]: suppressed
- LPS-induced formation of the IRAK1-mediated signaling complex [4]: suppressed
- LPS-induced formation of the RIP1-mediated signaling complex [4]: suppressed
- number of bacteria in the peritoneal fluid [5]: significantly lower
- expression of LPS-induced IL6 inflammatory gene [6]: reduced the expression of LPS-induced IL6 inflammatory gene in a dose-dependent manner
- TRAIL expression in splenocytes [7]: reduced
